Measured values as given in a melting point compilation (Tetko et al.; mined from patent text by program, amines drawn as free bases though some values may be those of a salt).

Compound | melting point
Cc1ccc(NC(=O)C2C(=O)C3CC[C@](C)(C2=O)C3(C)C)cc1 (stereo partly drawn) | 80 to 82 °C
Cn1nnnc1S(=O)(=O)CCCCS(=O)(=O)c1nnnn1C | 192 to 194 °C
CC(C)NCC(O)COC1c2ccccc2C(=O)N1c1cccc(Cl)c1 (stereo not drawn) | 128 °C
O=c1[nH]c2cc(Cl)c(Cl)cc2n1CCCBr | 198 °C
COc1ccc(S(=O)(=O)N2CCC(N3N=C(c4ccc(OC)c(OC)c4)CCC3=O)CC2)cc1 | 197 to 198 °C
CCCCCCCCCCCCCCCC(=O)OC(CCCCCCCCCCCCCC)C(=O)N[C@H](C(=O)N[C@@H](CCC(=O)O)C(=O)O)C(C)C (stereo partly drawn) | 101 to 103 °C
CC(=Cc1ccc(Br)cc1)c1ccc2c(C)c(C)c(C)c(C)c2c1 | 133 to 136 °C
O=C(O)C(S)c1ccc(Cl)cc1 (stereo not drawn) | 123 to 125 °C
O=C(O)COc1ccc2c(c1)-c1nc(SC(c3ccccc3)c3ccccc3)sc1CC2 | 141 to 143 °C
CCCCOCCOc1ccc(-c2ccc3c(c2)C=C(C(=O)Nc2ccc(/C(Cc4nccn4CCC)=N/OCC)cc2)CCN3CC(C)C)cc1 | 156 °C
CCCc1nnc(Cc2ccc(NC(=O)/C=C/c3cnn(C)c3-c3ccc(F)cc3)cc2)o1 | 154 to 155 °C
CCCN(CCC)C1Cc2cc3c(=O)[nH]n(Cc4ccccc4)c(=O)c3cc2C1 (stereo not drawn) | 219 to 220 °C
CCCCCCCCCCCCN1C(=O)C=CC1=O | 56 °C
O=C(O)C=c1sc2n(c1=O)Cc1ccccc1N=2 | 263 to 264 °C
CS(=O)(=O)c1cc(-c2nc(=O)c3ccccc3s2)ccn1 | 190 to 192 °C
O=C(c1ccccc1)c1cc2ccnc(N(Cc3ccccc3)Cc3ccccc3)c2[nH]1 | 122 to 124 °C
CC1(C)C(=O)N(c2ccc([N+](=O)[O-])c(C(F)(F)F)c2)C(=O)N1CCCCN1C(=O)N(c2ccc([N+](=O)[O-])c(C(F)(F)F)c2)C(=O)C1(C)C | 211 to 212 °C
COc1ccc(C(=O)Cc2ccccc2)cc1OC1CCCC1 | 117 to 119 °C
CON=C(C(=O)OC)c1ccccc1COc1ccc(C(C)=NOCc2ccccc2)cc1 | 104 to 106 °C
CC(C)n1nc(-c2sc(C(=O)NN(C)C)nc2-c2ccc(F)cc2)ccc1=O | 169 to 170 °C
COC(=O)C1=C(C)NC(C)=C(C(=O)OCCN2CCCC2=O)C1c1cccc([N+](=O)[O-])c1 (stereo not drawn) | 112 to 114 °C
Cn1c([N+](=O)[O-])cnc1-c1nnc(N)s1 | 266 to 268 °C
COc1c(N2C[C@H](N)[C@H]3OCC[C@H]32)c(F)cc2c(=O)c(C(=O)O)cn(C3CC3)c12 (relative stereo) | 187 to 189 °C
Nc1ccnc(CSCCO)n1 | 131 to 134 °C
N#Cc1cc(-c2cccnc2)nn1-c1ccc(NCC2Cc3ccccc3C2)cc1 | 156 to 158 °C

Compound | melting point
O=c1c(-c2ccccc2)c(CSc2ncnc3[nH]cnc23)oc2ccccc12 | 208 to 209 °C
Nc1ccc2oc(Cc3ccccc3)cc2c1 | < 50 °C
Cc1ccc(Cc2cnc(CCCOc3cccc(CN4CCCCC4)c3)[nH]c2=O)cn1 | 137 to 138 °C
O=C(C=Cc1cccc(S(=O)(=O)NCc2cccnc2)c1)NO | 191 °C
Cc1cc2nc(SCC(F)(F)F)[nH]c2cc1C | 150 to 163 °C
CC(C)c1ccc(S(=O)(=O)n2c(Cc3ccc(C(=O)O)c(F)c3)cc3cc(Cl)ccc32)cc1 | 196 °C
CCCCCCCCCCCCCCCCCC(=O)c1ccc(C(=O)O)c(Cl)c1 | 96 to 102 °C
C(=Nc1c2c(nc3ccccc13)CCCC2)c1cccc2ccccc12 | 229 to 231 °C
CCCCOc1ccc(Oc2ccc(C#CC(C)N(O)C(N)=O)o2)cc1 (stereo not drawn) | 128 to 129 °C
N#CCN1C(=O)CC=C(C2(c3ccccc3)C=C3C=CC=CN3N2)N1C1=CCCCC1 (stereo not drawn) | 74 to 76 °C
CC1(C)C(c2ccc(O)cc2)C1(Cl)Cl (stereo not drawn) | 111 to 112 °C
CCSc1cc(O)nc(N(C)C)n1 | 184 to 185 °C
CC(Oc1ccc2nc(NC(=O)NCCN3CCN(C(=O)OC(C)(C)C)CC3)sc2c1)c1c(Cl)ccc(F)c1Cl (stereo not drawn) | 87 °C
CN1CCN(c2ccc(N/C=C3\C(=O)NC(=O)c4ccc(-n5cccc5)cc43)cc2)CC1 | 239 to 240 °C
O=C1NCCc2c[nH]c3cccc1c23 | 234 °C
CC=C1C=C(OC)N=C(N)N1 | 119 to 122 °C
COc1ccc(-n2cnnc2SC)cc1 | 172 °C
O=C(O)Cc1c(C(=O)O)c2cc(Oc3ccc(Cl)cc3)ccc2n1-c1ccccc1 | 202 to 204 °C
COc1ccc(C(C#Cc2ccccc2)CC(N)=O)cc1OC1CCCC1 (racemic) | 142 to 144 °C
COc1cc(CCl)ccc1OCc1coc(-c2ccco2)n1 | 123 to 124 °C
O=c1oc(-c2cccc(C(F)(F)F)c2)nc2ccc(F)cc12 | 118 to 119 °C
C#Cc1ccc2c(c1)c1cc(-c3ccc(Cl)cc3Cl)c(=O)n(C)c1n2C | 184 to 185 °C
Oc1ncc(Br)cc1C(F)(F)F | 160 to 162 °C
CCOc1ccc(Br)c(O)c1C(=O)NCC1CCCN1CC (stereo not drawn) | 74 to 76 °C
Cc1cc2ccc(Cl)cc2[nH]1 | 120 to 122 °C

Compound | melting point
CC1(C)C(C=C2CC2(F)F)C1C(=O)O (stereo not drawn) | 78.9 °C
Nc1cc2c(Nc3ccc(F)c(C(F)(F)F)c3)ncnc2cn1 | 252 to 255 °C
Cn1c(=O)cc(-c2cccc(Cl)c2)c2cc(C(O)c3cncn3Cc3ccc(C#N)cc3)ccc21 (stereo not drawn) | 150 °C
CCOC(=O)N1CCN(c2nc(NC(C)=O)ccc2F)CC1 | 132 to 133 °C
NC(=O)CN1C(=O)OCc2cc(Br)ccc21 | 253 to 254 °C
CCCCCc1c(C(C)C)nc(C(C)C)c(CO)c1-c1ccc(Cl)cc1 | 83 to 85 °C
Cn1cncc1C(O)(c1ccc(C=NO)cc1)c1ccc2[nH]c(=O)cc(-c3cccc(Cl)c3)c2c1 (stereo not drawn) | 230 °C
CCOC(=O)c1csc(Cc2ccccc2)n1 | 78 to 79 °C
FC(F)c1cccc(C=C2c3ccccc3CCc3ccccc32)c1 | 92.5 °C
CCOC(=O)C(=NO)C(=O)c1ccc(Br)cc1 | 149 °C
c1ccc(-c2c3ccccc3nc3ccccc23)nc1 | 192 to 205 °C
CC(=O)Nc1ccc(/C(=C/N2CCOCC2)C(=S)N2CCOCC2)cc1 | 145 to 147 °C
CN(Cc1cc2c(=O)c(C(=O)NCc3ccc(Cl)cc3)cn(C)c2o1)CC(O)c1ccoc1 (stereo not drawn) | 93 to 97 °C
Cn1cnc(COc2ccc(-c3cc(-c4nc(C(C)(C)C)[nH]c4-c4ccccn4)ccn3)cc2)c1 | 156 °C
CSC(Oc1cc(C)c2ncc(I)cc2c1)C(=O)NC(C)(C#N)CF (stereo not drawn) | 70 to 79 °C
CCN(CC)S(=O)(=O)c1cc2c(ccc3nc(N)[nH]c(=O)c32)cc1Br | > 250 °C
CCOC(=O)Cc1ccccc1I | 40.5 to 41.5 °C
O=C(O)c1ccc2[nH]c(=O)n(CCCCN3CC=C(c4ccccc4)CC3)c(=O)c2c1 | 237 °C
CC(C)(O)C(O)c1ccc(-c2ccc(C(CC3CCOCC3)c3ccc(S(C)(=O)=O)c(Cl)c3)[nH]2)nc1 (stereo not drawn) | 138 to 140 °C
CC(C)(C)CC(C)(C)c1ccc(Nc2ccc(Cc3ccc(Nc4ccc(C(C)(C)CC(C)(C)C)cc4)c4ccccc34)c3ccccc23)cc1 | 80 °C
CCCCc1nc(=O)c2cc(C(C)(C)O)ccc2[nH]1 | 190 to 192 °C
CC1CCN(c2nccc(Oc3ccc(NC(=O)c4cc(F)cc(N5CCOCC5)c4)c4ccccc34)n2)CC1 | 117 to 118 °C
COc1cccc(Sc2c(O)c3ccc(Cl)cc3[nH]c2=O)c1 | 199 to 200 °C
CCn1c(=N)c(-c2cc(OC)cc(OC)c2)cc2cnc(SC)nc21 | 93 to 95 °C
Cc1onc(NS(=O)(=O)c2ccc([N+](=O)[O-])cc2)c1Br | 161 to 163 °C

Compound | melting point
COC(=O)CCCCCCC(C(=O)OC)S(C)(=O)=O (stereo not drawn) | 47 to 48 °C
c1ccc([C@H]2OC[C@@H](OCc3ccccn3)CO2)cc1 | 95 to 98 °C
CC(=O)OC1CSC(Oc2cccnc2-c2nnn[nH]2)C(OC(C)=O)C1OC(C)=O (stereo not drawn) | 119 to 127 °C
O=C(N[C@H]1CCCNC1=O)c1ccccc1C(F)(F)F | 155 to 156 °C
Cc1[nH]c(=O)c(-c2csc(-c3ccnc(NCCNC(C)C)c3)n2)cc1C(=O)NCCNC(C)C | > 260 °C
CCCCCCOc1c(OC)cc(C(=O)NN=C2CCCCC2=Cc2ccccc2)cc1OC | 158 to 160 °C
CS(=O)(=O)N(c1ccc(C#CCCN2CC=C(c3ccccc3)CC2)nc1)S(C)(=O)=O | 168 to 170 °C
Cc1cc(CCCOc2c(C)cc(N3COC(CO)=N3)cc2C)on1 | 116 to 117 °C
COc1cccc2cc(CNCCNC(=O)C34CC5CC(CC3C5)C4)oc12 | 103 to 107 °C
CCN1C(=O)C(=CC=C2C=C(c3ccccc3)C=C3N2c2ccccc2C3(C)C)C(=O)N(CC)C1=S | > 310 °C
CCCc1nc2c(N)nc3cc(Oc4ccc(N)cc4)ccc3c2n1CC(C)C | 190 to 191 °C
N#Cc1ccc(C(=O)NCCCCn2cnc3c(N)nc4ccccc4c32)cn1 | 125 to 129 °C
CCCCCCCCCNC(=O)CCCC | 29 to 31 °C
COc1cc(C#N)c(C(C)=O)cc1[N+](=O)[O-] | 224 to 226 °C
O=C(Nc1ccc(CN2CCCCC2)cc1)C(Br)C(Br)c1ccc(-c2ccc(Cl)cc2)cc1 (stereo not drawn) | 145 to 150 °C
CC[C@H](N)C(=O)N1CCC[C@H]1C(=O)NCCCSC | 120 to 121 °C
CCNC(=O)/C=C(C)/C=C/C=C(C)/C=C/c1c(C)cc(OC(F)(F)F)c(C)c1C | 198 to 200 °C
Nc1nc2[nH]c(CCC#Cc3ccc(C(=O)N[C@@H](CCC(=O)O)C(=O)O)o3)cc2c(=O)[nH]1 | 193 to 194 °C
CCCCCCCCCCCCCCCCCCNCP(=O)(O)O | 108 to 112 °C
CCNC(=O)COC1CCN(Cc2cnc3cc(NC(=O)c4ccc(-c5ccc(F)cc5)cc4)ccc3c2)CC1 | 228 to 230 °C
Cc1nnc2n1-c1sc(C#Cc3ccccc3)cc1C(c1ccccc1Cl)=NC2 | 215 to 217 °C
Cc1cc(Br)cc(C(=O)Nc2ccc(F)cn2)n1 | 160 °C
CN1CCCCC1=C1C(=O)N(c2cccc(Cl)c2)c2ccccc21 | 162 to 165 °C
